Laboratory results from PubChem BioAssay (NCI).
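How tested: cells in 96-well plates exposed to compound for 48 hours at five concentrations. GI50 is the concentration that inhibits growth by half. TGI marks complete inhibition of growth.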

Assays:
Assay in all cases: NCI tumour cell line growth inhibition, 48 h
MCF7 breast = system: MCF7 breast
SK-MEL-2 melanoma = system: SK-MEL-2 melanoma
OVCAR-4 ovarian = system: OVCAR-4 ovarian
NCI-H460 lung = system: NCI-H460 lung
SF-539 CNS = system: SF-539 CNS
CCRF-CEM leukemia = system: CCRF-CEM leukemia
HOP-62 NSCLC = system: HOP-62 NSCLC
SR leukemia = system: SR leukemia
SK-MEL-28 melanoma = system: SK-MEL-28 melanoma
SNB-19 CNS = system: SNB-19 CNS
OVCAR-5 ovarian = system: OVCAR-5 ovarian
MALME-3M melanoma = system: MALME-3M melanoma
M14 melanoma = system: M14 melanoma
SF-295 CNS = system: SF-295 CNS
HCT-116 colon = system: HCT-116 colon
HT29 colon = system: HT29 colon
MDA-MB-231 breast = system: MDA-MB-231 breast
DU-145 prostate = system: DU-145 prostate
A498 renal = system: A498 renal
HCT-15 colon = system: HCT-15 colon
NCI-H226 lung = system: NCI-H226 lung
HL-60(TB) leukemia = system: HL-60(TB) leukemia
SK-MEL-5 melanoma = system: SK-MEL-5 melanoma
NCI-H522 lung = system: NCI-H522 lung
PC-3 prostate = system: PC-3 prostate
BT-549 breast = system: BT-549 breast
TK-10 renal = system: TK-10 renal
ACHN renal = system: ACHN renal
SW-620 colon = system: SW-620 colon
MOLT-4 leukemia = system: MOLT-4 leukemia
EKVX NSCLC = system: EKVX NSCLC
A549 NSCLC = system: A549 NSCLC
RPMI-8226 leukemia = system: RPMI-8226 leukemia
786-0 renal = system: 786-0 renal
SN12C renal = system: SN12C renal
NCI-H23 lung = system: NCI-H23 lung
SNB-75 CNS = system: SNB-75 CNS
RXF 393 renal = system: RXF 393 renal
OVCAR-8 ovarian = system: OVCAR-8 ovarian
MDA-MB-435 = system: MDA-MB-435
HOP-92 NSCLC = system: HOP-92 NSCLC
UACC-257 melanoma = system: UACC-257 melanoma
HS 578T breast = system: HS 578T breast
SF-268 CNS = system: SF-268 CNS
U251 CNS = system: U251 CNS
IGROV1 ovarian = system: IGROV1 ovarian
HCC-2998 colon = system: HCC-2998 colon
OVCAR-3 ovarian = system: OVCAR-3 ovarian
UO-31 renal = system: UO-31 renal
CAKI-1 renal = system: CAKI-1 renal
UACC-62 melanoma = system: UACC-62 melanoma
KM12 colon = system: KM12 colon
LOX IMVI melanoma = system: LOX IMVI melanoma
SK-OV-3 ovarian = system: SK-OV-3 ovarian
COLO 205 colon = system: COLO 205 colon

With `O=C(CCCCN1CCOCC1)Nc1ccc(Cn2nnc3c2C(=O)c2nnn(Cc4ccc(NC(=O)CCCCN5CCOCC5)cc4)c2C3=O)cc1` the GI50 (MCF7 breast) was 84.9 nM, the TGI (MCF7 breast) was 195 nM and the GI50 (SK-MEL-2 melanoma) was 351 nM. The TGI (SK-MEL-2 melanoma) was 1220 nM, the GI50 (OVCAR-4 ovarian) was 177 nM and the TGI (OVCAR-4 ovarian) was 769 nM. The GI50 (NCI-H460 lung) was 112 nM, the TGI (NCI-H460 lung) was 530 nM and the GI50 (SF-539 CNS) was 132 nM. For the same molecule, the TGI (SF-539 CNS) was 355 nM, the GI50 (CCRF-CEM leukemia) was 271 nM and the TGI (CCRF-CEM leukemia) was 2700 nM. The GI50 (HOP-62 NSCLC) was 745 nM, the TGI (HOP-62 NSCLC) was 1490 nM and the GI50 (SR leukemia) was 406 nM. It also gave a TGI (SR leukemia) of 2650 nM, a GI50 (SK-MEL-28 melanoma) of 260 nM and a TGI (SK-MEL-28 melanoma) of 642 nM. It also gave a GI50 (SNB-19 CNS) of 187 nM, a TGI (SNB-19 CNS) of 566 nM and a GI50 (OVCAR-5 ovarian) of 107 nM. The TGI (OVCAR-5 ovarian) was 244 nM, the GI50 (MALME-3M melanoma) was 72 nM and the TGI (MALME-3M melanoma) was 163 nM. It also gave a GI50 (M14 melanoma) of 264 nM, a TGI (M14 melanoma) of 903 nM and a GI50 (SF-295 CNS) of 381 nM. The TGI (SF-295 CNS) was 1050 nM, the GI50 (HCT-116 colon) was 160 nM and the TGI (HCT-116 colon) was 584 nM. For the same molecule, the GI50 (HT29 colon) was 178 nM, the TGI (HT29 colon) was 837 nM and the GI50 (MDA-MB-231 breast) was 199 nM. It also gave a TGI (MDA-MB-231 breast) of 50000 nM, a GI50 (DU-145 prostate) of 459 nM and a TGI (DU-145 prostate) of 1050 nM. For the same molecule, the GI50 (A498 renal) was 906 nM, the TGI (A498 renal) was 1820 nM and the GI50 (HCT-15 colon) was 629 nM. For the same molecule, the TGI (HCT-15 colon) was 1550 nM, the GI50 (NCI-H226 lung) was 723 nM and the TGI (NCI-H226 lung) was 1840 nM. The GI50 (HL-60(TB) leukemia) was 157 nM, the TGI (HL-60(TB) leukemia) was 687 nM and the GI50 (SK-MEL-5 melanoma) was 71.7 nM. It also gave a TGI (SK-MEL-5 melanoma) of 141 nM, a GI50 (NCI-H522 lung) of 113 nM and a TGI (NCI-H522 lung) of 362 nM. The GI50 (PC-3 prostate) was 404 nM, the TGI (PC-3 prostate) was 2570 nM and the GI50 (BT-549 breast) was 722 nM. It also gave a TGI (BT-549 breast) of 1410 nM, a GI50 (TK-10 renal) of 2020 nM and a TGI (TK-10 renal) of 39600 nM. The GI50 (ACHN renal) was 758 nM, the TGI (ACHN renal) was 1810 nM and the GI50 (SW-620 colon) was 201 nM. It also gave a TGI (SW-620 colon) of 800 nM, a GI50 (MOLT-4 leukemia) of 183 nM and a TGI (MOLT-4 leukemia) of 788 nM. For the same molecule, the GI50 (EKVX NSCLC) was 776 nM, the TGI (EKVX NSCLC) was 1520 nM and the GI50 (A549 NSCLC) was 397 nM. It also gave a TGI (A549 NSCLC) of 1110 nM, a GI50 (RPMI-8226 leukemia) of 596 nM and a TGI (RPMI-8226 leukemia) of 2030 nM. For the same molecule, the GI50 (786-0 renal) was 1070 nM, the TGI (786-0 renal) was 3380 nM and the GI50 (SN12C renal) was 94.6 nM. For the same molecule, the TGI (SN12C renal) was 203 nM, the GI50 (NCI-H23 lung) was 154 nM and the TGI (NCI-H23 lung) was 522 nM. It also gave a GI50 (SNB-75 CNS) of 234 nM, a TGI (SNB-75 CNS) of 806 nM and a GI50 (RXF 393 renal) of 717 nM. For the same molecule, the TGI (RXF 393 renal) was 1810 nM, the GI50 (OVCAR-8 ovarian) was 257 nM and the TGI (OVCAR-8 ovarian) was 1140 nM. For the same molecule, the GI50 (MDA-MB-435) was 94.8 nM, the TGI (MDA-MB-435) was 170 nM and the GI50 (HOP-92 NSCLC) was 808 nM. For the same molecule, the TGI (HOP-92 NSCLC) was 1760 nM, the GI50 (UACC-257 melanoma) was 141 nM and the TGI (UACC-257 melanoma) was 399 nM. It also gave a GI50 (HS 578T breast) of 1090 nM, a TGI (HS 578T breast) of 13800 nM and a GI50 (SF-268 CNS) of 400 nM. The TGI (SF-268 CNS) was 1600 nM, the GI50 (U251 CNS) was 329 nM and the TGI (U251 CNS) was 879 nM. It also gave a GI50 (IGROV1 ovarian) of 669 nM, a TGI (IGROV1 ovarian) of 1460 nM and a GI50 (HCC-2998 colon) of 181 nM. For the same molecule, the TGI (HCC-2998 colon) was 594 nM, the GI50 (OVCAR-3 ovarian) was 167 nM and the TGI (OVCAR-3 ovarian) was 559 nM. The GI50 (UO-31 renal) was 1240 nM, the TGI (UO-31 renal) was 17500 nM and the GI50 (CAKI-1 renal) was 1430 nM. The TGI (CAKI-1 renal) was 28200 nM, the GI50 (UACC-62 melanoma) was 116 nM and the TGI (UACC-62 melanoma) was 341 nM. The GI50 (KM12 colon) was 574 nM, the TGI (KM12 colon) was 1720 nM and the GI50 (LOX IMVI melanoma) was 115 nM. The TGI (LOX IMVI melanoma) was 305 nM, the GI50 (SK-OV-3 ovarian) was 930 nM and the TGI (SK-OV-3 ovarian) was 1830 nM. It also gave a GI50 (COLO 205 colon) of 95.9 nM and a TGI (COLO 205 colon) of 186 nM.
